The record followed here is publication PMC12482042, “Targeting galectin-3 in cancer by novel and unique inhibitors of non-carbohydrate origin” (Molecular Medicine, 2025).

Like-named read-outs stand apart in the source and are kept apart here.

The target of assay [1] is T1, galectin-3 (Homo sapiens, UniProt P17931).
T1 construct: gene LGALS3; human recombinant galectin-3 expressed in E. coli
In words: intrinsic tryptophan fluorescence spectroscopy titration; also competitive ELISA against asialo-fetuin (IC50 […]) and CD. The assay is classed as binding. In general terms: An ELISA detects its analyte on a solid surface through an enzyme-linked reagent.

In assay [2] the target is T1, galectin-3. The description is as above. In kind it is binding. This is another data set of the same source.

T1 sequence (P17931 2-250): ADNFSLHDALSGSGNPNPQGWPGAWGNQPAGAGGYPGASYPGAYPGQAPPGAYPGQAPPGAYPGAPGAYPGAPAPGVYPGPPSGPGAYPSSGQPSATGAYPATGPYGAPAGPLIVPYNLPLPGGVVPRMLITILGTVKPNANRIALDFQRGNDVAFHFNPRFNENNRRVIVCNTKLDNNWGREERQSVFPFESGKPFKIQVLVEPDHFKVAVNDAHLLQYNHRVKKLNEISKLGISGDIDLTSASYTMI

One may read the Kd as a measure of binding affinity in units of concentration. On to `C[C@H]1COc2c(N3CCN(C)CC3)c(F)cc3c(=O)c(C(=O)NNc4cccc(N)c4)cn1c23` [L2], for which, in assay [1], the affinity, expressed as Kd, was 30.2 ± 1.4 µM. In the case of `C[C@H]1COc2c(N3CCN(C)CC3)c(F)cc3c(=O)c(C(=O)NNc4ccc(N)cc4)cn1c23` [K2], in assay [2], the Kd was determined as 18.1 ± 1.5 µM.
